Assay results taken from patent US20240246941A1, “SUBSTITUTED 4-(3-AMINOPROP-1-YL)AMINOQUINOLINE ANALOGS AS MODULATORS OF MELANOMA-ASSOCIATED ANTIGEN 11 UBIQUITIN LIGASE” (ST. JUDE CHILDREN'S RESEARCH HOSPITAL, INC., priority 2020, published 2024).
pIC50: −log10 of the molar value.

Target: interaction between GST-MAGEA11 MHD and FAM-PCF11_4 peptide (MAGE-A11:PCF11) (Homo sapiens (Human), UniProt P43364)
Assay: TR-FRET dose response competition assay for disruption of MAGE-A11:PCF11 binding
Details: Dose response TR-FRET screening of nine scaffold groups against MAGE-A11:PCF11; read-out: consensus IC50
Excerpt: TR-FRET Assays and High-throughput Screen. Terbium-anti-GST antibody, 1 M Tris pH 7.5 1 M MgCl2 and 1 M DTT were purchased from Invitrogen (Carlsbad, CA), BSA was purchased from Sigma (St. Louis, MO). Dimethyl sulfoxide (DMSO) was purchased from Fisher Scientific (Pittsburgh, PA). Black 384-well low volume plates and 384-well polypropylene compound plates were purchased from Corning Incorporated (Tewksbury, MA). The St. Jude FDA drug and Bioactive library (11,293 chemicals), Drug-like library (10,073 chemicals) and Lead-like library (10,041 chemicals) were custom assembled and purchased from commercial sources including Sigma, Microsource (Gaylordsville, CT), selleckchem (Houston, TX), ChemDiv (San Diego, CA), ChemBridge (San Diego, CA), Enamine (Monmouth Jct., NJ), and Life Chemicals (Niagara-on-the-Lake, ON, Canada). They were arrayed (10 mM in DMSO) in 384-well polypropylene compound plates with columns 1, 2, 13 and 14 empty which were reserved for controls.
The TR-FRET assay buffer with a formula of 50 mM Tris pH 7.5, 20 mM MgCl2, 0.1 mg/ml BSA and 1 mM DTT was freshly prepared before each experiment. All TR-FRET assays were performed in black 384-well plates with 20 μl/well assay volume in the TR-FRET assay buffer at room temperature (approximately 25° C.). All peptides or compounds were solubilized in DMSO. To test the competitive activity of peptides or compounds against the interaction between GST-MAGEA11 MHD and FAM-PCF11_4 peptide, 10 μl/well peptide or compound at specified concentration was dispensed into a black 384-well low volume plate, followed by 5 μl/well FAM-PCF11_4 (800 nM), 5 μl/well Tb-anti-GST (20 nM) and GST-MAGEA11 MHD (20 nM). The assay components in each well was then mixed by shaking the plate on an IKA MTS 2/4 digital microtiter plate shaker (IKA Works; Wilmington, NC, USA) at 900 RPM for 1 minute. The plate was further centrifuged in an Eppendorf 5810 centrifuge with an A-4-62 swing-bucket rotor (Eppendorf AG, Hamburg, Germany) at 201 g (1000 rpm) for 30 seconds. The plate was then incubated for 90 min with a lid to avoid light exposure to the assay components. After incubation, the fluorescent emission signals at 520 nm and 490 nm channels of individual wells were measured with a PHERAstar FS plate reader (BMG Labtech; Durham, NC, USA) by using a 340 nm excitation filter, 100 μs delay time, and 200 μs integration time. The TR-FRET fluorescence emission ratio (TR-FRET signal) for each well was presented as 10 000×520 nm/490 nm, which was used directly for curve fitting, or further converted to % Inhibition based on the respective positive and negative controls. The graphic software GraphPad Prism 4.81 (GraphPad Software; La Jolla, CA, USA) was used to generate curves and derive IC50 values of tested peptides or compounds, if applicable.
TR-FRET inhibitory activity characterization of a panel of PCF11 peptides against the interaction between GST-MAGEA11 MHD and FAM-PCF11_4 was performed as follows. In a 20 μl/well assay volume, dilutions of PCF11_1 to PCF11_8 peptides (concentrations ranged from 3.1 nM to 100 μM for peptides PCF11_4, PCF11_5, PCF11_6 and PCF11_8 in a 1-to-2 dilution pattern for 16 concentration levels, and ranged from 48.9 nM to 100 μM for peptides of PCF11_1, PCF11_2, PCF11_3 and PCF11_7 in a 1-to-2 dilution pattern for 12 concentration levels), 200 nM FAM-PCF11_4, 5 nM Tb-anti-GST and 5 nM GST-MAGEA11 were mixed together and incubated for 90 min before the TR-FRET signal for each well was measured. The final DMSO concentration was 1.1% (v/v). […] The signal of each peptide-treated well (Signalpeptide) was normalized to the positive and negative controls to derive % inhibition of the peptide at a specific concentration with equation 1. Where applicable, the % Inhibition data were fit into a Sigmoidal dose response equation to derive IC50 values.
TR-FRET screen for identifying MAGEA11 small molecule inhibitors was performed as follows.

Sequence of interaction between GST-MAGEA11 MHD and FAM-PCF11_4 peptide (MAGE-A11:PCF11) (P43364 218-429): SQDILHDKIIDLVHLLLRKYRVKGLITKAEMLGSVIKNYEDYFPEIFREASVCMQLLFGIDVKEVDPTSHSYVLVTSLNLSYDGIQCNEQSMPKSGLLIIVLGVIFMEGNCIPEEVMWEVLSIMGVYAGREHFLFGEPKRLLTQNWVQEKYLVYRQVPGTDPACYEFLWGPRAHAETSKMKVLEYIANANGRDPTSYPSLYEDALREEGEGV

Compound | pIC50
COc1ccc(-c2cc3ncn(CC(=O)NCc4ccccc4Cl)c(=O)c3s2)cc1 [SJ000449845-1] | 4.16
CCn1c2ccccc2c2cc(CN3CCN(S(=O)(=O)CC)CC3)ccc21 [SJ000168321-1] | 4.16
CSc1ccc(-c2nc3c(c(=O)[nH]c(=O)n3CC(C)C)n2CC(C)C)cc1 [SJ000394956-1] | 4.16
CN(C)c1ccc(-c2nc3c(c(=O)[nH]c(=O)n3Cc3ccccc3)n2C)cc1 [SJ000396262-1] | 4.16
C=CCn1c(=O)c2c(nc(-c3ccc(S(=O)(=O)O)cc3)n2C)n(C)c1=O [SJ000287614-4] | 4.12
Fc1cccc(CNCCCNc2ccnc3cc(Cl)ccc23)c1 [SJ000523061-1] | 4.16
Oc1ccccc1CNCCCNc1ccnc2cc(Cl)ccc12 [SJ000311187-1] | 4.16
CC(C)(C)NC(=O)NC(=O)Cn1cnc2cc(-c3ccccc3)sc2c1=O [SJ000427956-1] | 4.16
Cc1ccc(C)c(Nc2nc(N)c3ccccc3n2)c1 [SJ000192944-1] | 4.16
CCNC1=C(Cl)C(=O)c2ccccc2C1=O [SJ000157082-1] | 4.16
CCOC(=O)c1ccc(NC2=C(N)C(=O)c3ccccc3C2=O)cc1 [SJ000032711-1] | 4.16
Cn1c(-c2ccc(Cl)cc2)nc2c1c(=O)[nH]c(=O)n2Cc1ccccc1 [SJ000384618-1] | 4.16
COc1cccc(CNCCCNc2ccnc3cc(Cc4cccc(C(F)(F)F)c4)ccc23)c1O [SJ000311299-1] | 4.56
C=CCOc1ccc(-c2nc3c(c(=O)[nH]c(=O)n3CCCC)n2C)cc1Br [SJ000379462-1] | 4.16
CCCCCCCCOc1ccc(NC2=C(N)C(=O)c3ccccc3C2=O)cc1 [SJ000562629-1] | 4.26
CCCN1C(=O)c2ccccc2NC1c1c(Cl)cccc1Cl (stereo not shown) [SJ000295321-1] | 4.16
CCn1c2ccccc2c2cc(CNCCc3ccccc3)ccc21 [SJ000111712-1] | 4.16
O=C1C(Cl)=C(Nc2cccc(Br)c2)C(=O)c2ccccc21 [SJ000048680-1] | 4.16
c1cc(CNCCCNc2ccnc3cc(-c4cccc5ccccc45)ccc23)c2c(c1)OCO2 [SJ000311276-1] | 4.51
CCCCn1c(=O)[nH]c(=O)c2c1nc(-c1ccc(C)c([N+](=O)[O-])c1)n2CC [SJ000378919-1] | 4.16
O=C1OCC(c2ccc(Cl)cc2)=C1c1ccc([N+](=O)[O-])cc1 [SJ000413143-1] | 4.16
COc1ccc(C2Nc3ccccc3C(=O)N2Cc2ccc(C)cc2)cc1 (stereo not shown) [SJ000510743-1] | 4.16
c1cc(CNCCCNc2ccnc3cc(-c4ccc5c(c4)OCO5)ccc23)c2c(c1)OCO2 [SJ000311292-1] | 4.52

Compound | pIC50
CCCCn1c(=O)[nH]c(=O)c2c1nc(-c1ccc(F)cc1)n2CCOC [SJ000421862-1] | 4.16
Cc1ccccc1Nc1nc(N)c2ccccc2n1 [SJ000192476-1] | 4.16
C=CCOc1ccc(-c2nc3c(c(=O)[nH]c(=O)n3Cc3ccccc3)n2C)cc1Br [SJ000420085-1] | 4.16
Nc1ccccc1CNCCCNc1ccnc2cc(Cl)ccc12 [SJ000523055-1] | 4.16
COc1cccc(CNCCCNc2ccnc3cc(CC4CCCCC4)ccc23)c1O [SJ000311251-1] | 4.53
COc1ccc(F)cc1CNCCCNc1ccnc2cc(-c3ccc4c(c3)OCO4)ccc12 [SJ000311293-1] | 4.52
CCCCn1c(=O)[nH]c(=O)c2c1nc(-c1ccc(SC)cc1)n2C [SJ000382100-1] | 4.16
FC(F)(F)Oc1cccc(CNCCCNc2ccnc3cc(C(F)(F)F)ccc23)c1 [SJ000521045-2] | 4.16
Cc1cc(C)c(C2Nc3ccccc3C(=O)N2CCCN2CCOCC2)cc1C (stereo not shown) [SJ000803761-1] | 4.21
COc1ccccc1CNC(=O)Cn1cnc2cc(-c3ccc(Cl)cc3)sc2c1=O [SJ000444040-1] | 4.16
COP(=O)(OC)c1nc(-c2ccc(C)cc2)oc1N1CCOCC1 [SJ000090156-1] | 4.16
CCCN1C(=O)c2ccccc2NC1c1cc(OC)c(OC)c(OC)c1 (stereo not shown) [SJ000551165-1] | 4.16
Cn1c(-c2cc(Cl)ccc2O)nc2c1c(=O)[nH]c(=O)n2Cc1ccccc1 [SJ000386224-1] | 4.16
COc1cccc(CNCCCNc2ccnc3cc(Cc4ccc(C#N)cc4)ccc23)c1O [SJ000311303-1] | 4.29
CCCn1c(=O)[nH]c(=O)c2c1nc(-c1ccc(C#N)cc1)n2CCN1CCOCC1 [SJ000403937-1] | 4.16
CCOc1ccc(NC2=C(Cl)C(=O)c3ccccc3C2=O)cc1 [SJ000122936-1] | 4.16
COc1ccc(F)cc1CNCCCNc1ccnc2cc(Cc3cc(C)cc(C)c3)ccc12 [SJ000311321-1] | 5.04
COc1ccc(-c2ccc3c(NCCCNCc4cc(F)ccc4OC)ccnc3c2)cc1 [SJ000311297-1] | 4.16
Cc1nc2cc(-c3ccccc3)sc2c(=O)n1N [SJ000296471-1] | 4.16
CCCn1c(=O)[nH]c(=O)c2c1nc(-c1ccc(Cl)cc1)n2CCOC [SJ000424475-1] | 4.16
O=C1C(Cl)=C(N2CCN(S(=O)(=O)c3ccc(F)cc3)CC2)C(=O)c2ccccc21 [SJ000038882-1] | 4.16
c1cc(CNCCCNc2ccnc3cc(CC4CCCCC4)ccc23)c2c(c1)OCO2 [SJ000311252-1] | 4.79

Same assay, conditions: Table 5, dose response TR-FRET screening of 59 quinoline compounds against MAGE-A11:PCF11; read-out: TR-FRET IC50

Compound | pIC50
Clc1ccc2c(NCCCCN(Cc3ccccc3)Cc3csc4ccccc34)ccnc2c1 [SJ000520446-1] | < 4.15
CCCN(CCCNc1ccnc2cc(C(F)(F)F)ccc12)CCC(C)(C)C [SJ000520476-1] | < 4.15
FC(F)(F)c1ccc2c(NCCCNCc3csc4ccccc34)ccnc2c1 [SJ000521061-1] | < 4.15
Clc1ccc2c(NCCCCN(Cc3ccccc3)CC3CCCCC3)ccnc2c1 [SJ000361194-2] | < 4.15
CCCCCN(CCC)CCCNc1ccnc2cc(C(F)(F)F)ccc12 [SJ000361271-1] | < 4.15
c1coc(CNCCCNc2ccnc3cc(C4CCCCC4)ccc23)c1 [SJ000311262-1] | < 4.15
Fc1ccc(CN(CCCCNc2ccnc3cc(Cl)ccc23)Cc2ccccc2)cc1 [SJ000522725-1] | < 4.15
Clc1ccc2c(NCCCNCc3ccc[nH]3)ccnc2c1 [SJ000575192-1] | 4.64

Same assay, conditions: Table 8, representative compounds; read-out: TR-FRET IC50

Compound | pIC50
COc1ccc(C(F)(F)F)cc1CNCCCNc1ccnc2cc(Cl)ccc12 [SJ000521036] | 4.16
Fc1cccc(CNCCCNc2ccnc3cc(C(F)(F)F)ccc23)c1 [SJ000521066] | 4.16
COc1cccc(CNCCCNc2ccnc3cc(Oc4ccc(C(C)(C)C)cc4)ccc23)c1O [SJ000311235] | 5.12
COc1ccc(F)cc1CNCCCNc1ccnc2cc(CCC(C)C)ccc12 [SJ000311249] | 4.16
CCC(CC)c1ccc2c(NCCCNCc3cccc4c3OCO4)ccnc2c1 [SJ000311268] | 4.54
Clc1ccc2c(NCCCNCc3ccccc3)ccnc2c1 [SJ000361100] | 4.16
Clc1ccc2c(NCCCNCc3c4ccccc4cc4ccccc34)ccnc2c1 [SJ000361122] | 4.16
FC(F)(F)c1cccc(CNCCCNc2ccnc3cc(Cl)ccc23)c1 [SJ000521024] | 4.16
